According to patent publication EP2902035B1, “Cell-permeable peptide inhibitors of the JNK signal transduction pathway for use in the treatment of inflammatory eye diseases” (Xigen Inflammation Ltd., priority 2010, dated 2012):

System: ED1 positive cells
Experiment: Quantification of infiltrating ED1 positive cells on histological sections in EIU
Assay type: in vivo, Lewis rats
Details: 24 hours after LPS challenge, mean ± SEM
Protocol: For immunohistochemistry, eyeballs were collected and fixed for 1h at room temperature in phosphate buffered saline (PBS) containing 4% paraformaldehyde before being rinsed overnight in PBS. The next day, samples were embedded and frozen in optimal cutting-temperature (OCT) compound (Tissue-Tek®, Sakura Finetek, Zoeterwoude, Netherland) and stored at -80°C. Frozen antero-posterior sections of eyes (10 µm thick) were performed at the optic nerve level using a cryostat (Leica CM 3050S, Rueil-Malmaison, France) and mounted on super-frost slides for immunohistochemical analysis.
A second set of experiment was designed to evaluate the anti-inflammatory effect of the JNK-inhibitor (poly-)peptide of SEQ ID NO: 11 at the cellular and tissue level as well as the biodistribution of this molecule 24 hours after administration. Rats were randomized into 11 experimental groups. 6 groups of rats with uveitis: untreated uveitic rats, rats injected intravenously with NaCl or the JNK-inhibitor (poly-)peptide of SEQ ID NO: 11 and rats injected intravitreously with the vehicle, the JNK-inhibitor (poly-)peptide of SEQ ID NO: 11 or dexamethasone. The 5 additional groups without uveitis were: untreated healthy rats, rats treated by NaCl IV or the JNK-inhibitor (poly-)peptide of SEQ ID NO: 11 IV and rats injected IVT with NaCl or the JNK-inhibitor (poly-)peptide of SEQ ID NO: 11. Three eyes from separate rats were collected per group and used for immunohistochemistry.
To characterize the cellular infiltrate, sections were double-stained with ED1 and iNOS. […] After staining nuclei with DAPI (Sigma-Aldrich, Saint-Quentin Fallavier, France), sections were mounted in PBS/Glycerol (1/1) and observed by fluorescence photomicroscopy (FXA, Microphot, Nikon, Melville, USA). […] ED1 positive cells and polymorphonuclear cells, identified by the shape of their nuclei stained with DAPI, were quantified on histological sections. […] Results were expressed as mean ± standard error of the mean (SEM).

CC(C)C[C@@H](NC(=O)[C@@H](Cc1ccccc1)NC(=O)[C@H]1CCCN1C(=O)[C@@H](CCC(N)=O)NC(=O)[C@H](NC(=O)[C@H]1CCCN1C(=O)[C@@H](CCCNC(=N)N)NC(=O)[C@@H](CO)NC(=O)[C@@H](CCC(N)=O)NC(=O)[C@H](N)CC(=O)O)C(C)C)C(=O)N[C@H](CC(N)=O)C(=O)N[C@H](CC(C)C)C(=O)N[C@@H](C(=O)N[C@@H](C(=O)N1CCC[C@@H]1C(=O)N[C@H](CCCNC(=N)N)C(=O)N[C@H](CCCCN)C(=O)N1CCC[C@@H]1C(=O)N[C@H](CCCNC(=N)N)C(=O)N1CCC[C@@H]1C(=O)N1CCC[C@@H]1C(=O)N[C@H](CCCNC(=N)N)C(=O)N[C@H](CCCNC(=N)N)C(=O)N[C@H](CCCNC(=N)N)C(=O)N[C@H](CCC(N)=O)C(=O)N[C@H](CCCNC(=N)N)C(=O)N[C@H](CCCNC(=N)N)C(=O)N[C@H](CCCCN)C(=O)N[C@H](CCCCN)C(=O)N[C@H](CCCNC(=N)N)C(=O)NCC(=O)O)[C@H](C)O)[C@H](C)O [SEQ ID NO: 11]
number of ED1 positive cells (IV injection (20 µg/kg)): 137 ± 7
number of ED1 positive infiltrating cells (IVT injection (SEQ ID NO: 11: 0.2 µg/injection)): 93 ± 8
